Values after ≈ are worked out from the molar mass of the structure shown. Like-named read-outs stand apart in the source and are kept apart here. Marks after values point to notes of the source that are not given here. Starred links: 1 amine or outer side, 2 acyl side, 3 side chain; linkers in the order of their positions; H or OH if unused. Non-standard residues stand in square brackets, D forms with d. Residues, ends and D or L forms follow the SMILES beside them. Groups on a side chain read outwards from the residue. *: point of attachment. C20 diacid = O=C(O)CCCCCCCCCCCCCCCCCCC(=O)*; γGlu = O=C(O)[C@H](CCC(=O)[*:2])N[*:1]; AEEA = NCCOCCOCC(=O)O; Aib = CC(C)(N)C(=O)O
Legend:
hGLP-1-R [1] = target: T1, hGLP-1-R (Homo sapiens, UniProt P43220); test: hGLP-1R Binding Assay (SPA radioligand competition, 293HEK membranes); design: expressed in transfected cells; host or cells: 293HEK, stably transfected with plasmid phD, Hygromycin-selected; crude plasma membranes; conditions: read-out: Ki, nM ± SEM at the hGLP-1-R
T1 sequence (P43220 24-463): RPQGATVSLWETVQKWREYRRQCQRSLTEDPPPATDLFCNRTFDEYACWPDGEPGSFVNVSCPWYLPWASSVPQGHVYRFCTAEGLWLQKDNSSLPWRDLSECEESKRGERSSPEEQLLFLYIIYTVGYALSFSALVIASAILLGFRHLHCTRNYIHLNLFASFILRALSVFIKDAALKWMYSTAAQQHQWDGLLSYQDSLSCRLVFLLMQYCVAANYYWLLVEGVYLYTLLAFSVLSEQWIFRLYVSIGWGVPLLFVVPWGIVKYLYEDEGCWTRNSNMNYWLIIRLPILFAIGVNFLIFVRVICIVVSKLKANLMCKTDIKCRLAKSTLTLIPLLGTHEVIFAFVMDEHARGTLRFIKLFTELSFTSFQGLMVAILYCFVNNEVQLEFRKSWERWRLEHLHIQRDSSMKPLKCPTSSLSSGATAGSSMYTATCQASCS

hGLP-1-R [2] = target: T1, hGLP-1-R; test: Functional hGLP-1-R assay (cAMP HTRF, HEK-293 clonal cell line); type: cell-based; design: expressed in transfected cells; host or cells: HEK-293 clonal cell line over-expressing the receptor
Procedure: (§1) After a 60 minute incubation at room temperature, the resulting increase in intracellular cAMP (adenosine 3′,5′-cyclic monophosphate) is quantitatively determined using the CisBio cAMP Dynamic 2 HTRF Assay Kit (62AM4PEJ). cAMP levels within the cell are detected by adding the cAMP-d2 conjugate in cell lysis buffer (20 μl) followed by the antibody anti-cAMP-Eu^3+-Cryptate, also in cell lysis buffer (20 μl).
(§2) A relative EC50 value and percent top (Emax) are derived by non-linear regression analysis using the percent maximal response vs. the concentration of peptide added, fitted to a four-parameter logistic equation (Genedata Screener®).
(§3) Means for EC50 are expressed as Geometric means±standard error of the mean (SEM) with the number of replicates (n) indicated in parenthesis. Means for Emax are expressed as the arithmetic mean±standard error. ND signifies that agonist activity was not detected.

hGcg-R = hGcg-R (Homo sapiens, UniProt P47871); test: hGcg-R Binding Assay (SPA radioligand competition, 293HEK membranes); conditions: read-out: Ki, nM ± SEM at the hGcg-R
Sequence of hGcg-R (P47871 26-477): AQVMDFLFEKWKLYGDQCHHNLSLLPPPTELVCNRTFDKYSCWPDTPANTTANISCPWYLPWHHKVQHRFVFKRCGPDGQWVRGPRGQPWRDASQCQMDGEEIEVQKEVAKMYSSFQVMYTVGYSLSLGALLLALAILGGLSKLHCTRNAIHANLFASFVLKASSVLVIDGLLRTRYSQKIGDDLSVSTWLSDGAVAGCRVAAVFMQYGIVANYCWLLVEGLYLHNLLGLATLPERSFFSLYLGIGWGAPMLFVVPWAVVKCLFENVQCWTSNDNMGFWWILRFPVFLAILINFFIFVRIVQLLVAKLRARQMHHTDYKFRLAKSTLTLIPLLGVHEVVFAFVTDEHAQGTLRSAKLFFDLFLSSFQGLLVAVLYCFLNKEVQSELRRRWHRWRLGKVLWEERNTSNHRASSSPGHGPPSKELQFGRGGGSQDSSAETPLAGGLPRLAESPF

[3] = Solubility (RP-HPLC and HPLC-SEC, 1 week at 4° C.); type: physicochemical
Procedure: Solubility of compounds of the present invention is measured in an Agilent 1100 HPLC, an Agilent 1200 HPLC and a Nanodrop 2000. The following HPLC columns are used:
(a) RP-HPLC: Waters Symmetry Shield C18, 3.6 um, 4.6×100 mm
(b) HPLC-SEC: Tosoh Biosciences, TSK2000SWXL […]
All peptide concentrations are made at 10 mg/mL in the following:
(a) 10 mM Tris pH 8.0+3 mg/mL m-cresol
(b) 10 mM Tris pH 8.0+3 mg/mL m-cresol+150 mM NaCl
(c) 10 mM Tris pH 8.0+3 mg/mL m-cresol+0.02% Tween-20
5 mL of 10 mg/mL peptide dissolved in 10 mM Tris at pH 8.0 is concentrated to approximately 20 mg/mL using Amicon-ultra 3 kDa MWCO devices. The solution is filtered using Millivex 0.22 μM filters (PVDF membrane) and the final concentration is measured by the NanoDrop spectrometer. This stock solution is used to formulate to the final conditions stated above using 3× m-cresol, 10× NaCl, and 100× Tween-20 stock solutions. A 10 mg/mL PBS solution is also prepared by dissolving directly at 5 mg/mL and concentrating using Amicon-ultra 3 kDa MWCO devices.
Each solution is placed in a refrigerator at 4° C. for 1 week, with analysis by RP-HPLC to assess concentration and HPLC-SEC to assess HMW species formation. Analyses completed at T-0 week and T-1 week.
The solubility of Compounds 1-4 was measured essentially as described in this assay.

Human Gcg-R = target: T2, Human Gcg-R (Homo sapiens, UniProt P47871); test: Functional hGcg-R assay (cAMP HTRF, HEK-293 clonal cell line); type: cell-based
T2 construct: expressed in transfected cells; host or cells: HEK-293 clonal cell line over-expressing the receptor
T2 sequence (P47871 26-477): as above
Procedure: as §1, §2, §3

[4] = Viscosity (Rheosense mVroc Viscometer); type: physicochemical; conditions: approximately 10 mg/mL peptide in 10 mM Tris + 3 mg/mL m-cresol at pH 8.0; 25° C.; shear rate 1934 s^−1
Procedure: Viscosity of compounds of the present invention is measured in a Rheosense mVroc Viscometer with the following settings:
(a) Syringe size: 500 μL syringe
(b) Flow Rate: 100 μL/min flow rate
(c) Average Temperature: 25° C.
(d) Shear Rate: 1934 s^−1
Dry powder (compound) is weighed out, dissolved in water as a cloudy precipitate, and titrated to approximately pH 8.0 with 1N NaOH. The solution is sonicated and swirled by hand until peptide is in solution. Samples are sterile filtered (0.22 μm PVDF filters). Samples are then analyzed by UV-Vis to assess stock solution concentrations. Solutions are diluted to final concentration using 3× m-cresol in 10 mM Tris pH 8.0 buffer to final concentrations of approximately 10 mg/mL peptide by weight in 10 mM Tris+3 mg/mL m-cresol at pH 8.0. Samples were filtered through 0.22 μm filters immediately prior to viscosity analysis. 25 μL of sample are removed to verify concentration by RP-HPLC before and after analysis.
Water and buffer control samples are measured before and after each sample is analyzed. The instrument is washed with buffer (3×) in between analysis of each sample. The samples are loaded into individual syringes and analyzed. The first measurement is not included in the final calculation to allow for equilibration with the system. Samples are then analyzed in triplicate (n=3).
The viscosity of Compounds 1-4 was measured essentially as described in this assay.

DIO mice (C57BL/6) [5] = test: Chronic treatment in DIO mice (body weight, fat, food intake); type: in vivo, mouse
Procedure: The effects on food intake and body weight/fat are evaluated in DIO mice. Five to six months old DIO mice (C57BL/6) from Taconic Biosciences are used in this study. Animals are individually housed in a temperature-controlled (24° C.) facility with a 12 hour light/dark cycle (lights on 6:00), and free access to food and water. The mice are acclimated to the facility for two weeks. The day before the study start, fat mass is measured by nuclear magnetic resonance (NMR) using an Echo Medical System (Houston, Tex.) instrument. The mice are randomized to treatment groups (N=7/group) based on body weight and fat mass so each group had similar starting mean body weight and fat mass. […] SC injections are made on Day 1, 4, 7, 10, and 13. Body weight and food intake are measured right before each injection throughout the study. Percent changes in body weight are calculated as follows: […]
At the completion of the study, total fat mass is measured again by NMR. Statistics are analyzed using ANOVA with Dunnett's comparison by JMP 6. Significance is denoted at p≤0.05 vs. vehicle.

DIO mice (C57BL/6) [6] = test: Glycemic control in DIO mice; type: in vivo, mouse; conditions: for Blood glucose (mg/dL) post-injection, Mean: male DIO mice, 25 nmol/kg sc once
Procedure: Five to six months old male DIO mice (C57BL/6) from Taconic Biosciences are used in this study. Animals are individually housed in a temperature-controlled (24° C.) facility with a 12 hour light/dark cycle (lights on 6:00), and free access to food and water. After two weeks acclimation to the facility, the mice are randomized to treatment groups (n=7/group) based on their body weight and blood glucose. Mice are injected subcutaneously once with vehicle or compounds (25 nmol/kg). Blood glucose is monitored 2 and 8 hours post-injection and then once a day at 08:00 for 4 days. OGTTs are performed at 44 and 78 hours post the peptide injection. Statistics are analyzed using ANOVA with Dunnett's comparison by JMP 6. Significance is denoted at p≤0.05 vs vehicle.

[7] = 15 nmol/kg sc every three days for 15 days
[8] = 30 nmol/kg sc every three days for 15 days

## CC(C)C[C@H](NC(=O)[C@H](CC(C)C)NC(=O)[C@H](Cc1c[nH]c2ccccc12)NC(=O)[C@H](CCC(=O)O)NC(=O)[C@@H](NC(=O)[C@H](Cc1ccccc1)NC(=O)[C@H](CCC(=O)O)NC(=O)[C@H](CCCCNC(=O)COCCOCCNC(=O)COCCOCCNC(=O)CC[C@H](NC(=O)CC[C@H](NC(=O)CCCCCCCCCCCCCCCCCCC(=O)O)C(=O)O)C(=O)O)NC(=O)[C@H](C)NC(=O)[C@H](CCCCN)NC(=O)[C@H](CCCCN)NC(=O)[C@H](CCC(=O)O)NC(=O)[C@H](CC(=O)O)NC(=O)[C@H](CC(C)C)NC(=O)[C@H](Cc1ccc(O)cc1)NC(=O)[C@H](CCCCN)NC(=O)[C@H](CO)NC(=O)[C@H](Cc1ccc(O)cc1)NC(=O)[C@H](CC(=O)O)NC(=O)[C@H](CO)NC(=O)[C@@H](NC(=O)[C@H](Cc1ccccc1)NC(=O)[C@@H](NC(=O)CNC(=O)[C@H](CCC(N)=O)NC(=O)C(C)(C)NC(=O)[C@@H](N)Cc1c[nH]cn1)[C@@H](C)O)[C@@H](C)O)C(C)C)C(=O)N[C@@H](CO)C(=O)NCC(=O)NCC(=O)N1CCC[C@H]1C(=O)N[C@@H](CO)C(=O)N[C@@H](CO)C(=O)NCC(N)=O [Compound 4] (H-H[Aib]QGTFTSDYSKYLDEKKAK([AEEA-AEEA-γGlu-γGlu-C20 diacid])EFVEWLLSGGPSSG-NH2; N-terminus assumed)
hGLP-1-R [1]
  Ki: 20.2 ± 8.2 nM
hGLP-1-R [2]; HEK293
  Emax: 85.2 ± 6%
hGLP-1-R [2]; cAMP, 60 minute incubation, 0.25% FBS, 0.05% BSA, geometric mean, read-out: Human GLP-1-R EC50, nM ± SEM (n)
  EC50: 106 ± 18 nM
hGcg-R
  Ki: 27.4 ± 3.3 nM
[3]; 10 mM Tris pH 8.0 + 3 mg/mL m-cresol + 0.02% Tween-20, Tris pH 8 + 3 mg/mL m-cresol + 0.02% Tween-20
  solubility at 1 week: 10000 µg/mL
[3]; 10 mM Tris pH 8.0 + 3 mg/mL m-cresol + 150 mM NaCl, Tris pH 8 + 3 mg/mL m-cresol + 150 mm NaCl
  solubility at 1 week: 10000 µg/mL
[3]; 10 mM Tris pH 8.0 + 3 mg/mL m-cresol, Tris pH 8 + 3 mg/mL m-cresol
  solubility at 1 week: 10000 µg/mL
[3]; 1 week at 4° C.
  HMW species formation by SEC-HPLC: No observed HMW species formation by SEC-HPLC;
[3]; PBS pH 7.4, pH 7.4, read-out: solubility in PBS, pH 7.4
  solubility at 1 week: 10000 µg/mL (≈ 2150 µM)
[3]; after 1 week storage at 4° C.
  visible precipitation or phase separation: No visible precipitation or phase separation observed after 1 week
Human Gcg-R; HEK293
  Emax: 116 ± 4%
Human Gcg-R; cAMP, 60 minute incubation, 0.25% FBS, 0.05% BSA, geometric mean, read-out: Human Gcg-R EC50, nM ± SEM, (n)
  EC50: 68.8 ± 7.2 nM
[4]
  500 μL syringe Viscosity: 1.05 cP or mPa-s
DIO mice (C57BL/6) [5]; [7]
  Body Fat (% change vs. vehicle from Day 1): −26* %
  Body Weight (% change vs. vehicle from Day 1): −15* %
DIO mice (C57BL/6) [5]; [8]
  Body Fat (% change vs. vehicle from Day 1): −69* %
  Body Weight (% change vs. vehicle from Day 1): −39* %
DIO mice (C57BL/6) [6]; OGTT 44 hours post-injection, 25 nmol/kg sc
  44 hours Glucose AUC (% of Vehicle): 41* % of Vehicle
DIO mice (C57BL/6) [6]; OGTT 78 hours post-injection, 25 nmol/kg sc
  78 hours Glucose AUC (% of Vehicle): 60* % of Vehicle
DIO mice (C57BL/6) [6]; OGTTs at 44 and 78 hours post injection, 25 nmol/kg
  glucose excursions post an oral glucose challenge: lower glucose excursions post an oral glucose challenge at both time points
DIO mice (C57BL/6) [6]; 2 hours post-injection
  Blood glucose (mg/dL) post-injection, Mean: 110.2 mg/dL
DIO mice (C57BL/6) [6]; 8 hours post-injection
  Blood glucose (mg/dL) post-injection, Mean: 91.5 mg/dL
DIO mice (C57BL/6) [6]; 24 hours post-injection
  Blood glucose (mg/dL) post-injection, Mean: 87.4 mg/dL
DIO mice (C57BL/6) [6]; 48 hours post-injection
  Blood glucose (mg/dL) post-injection, Mean: 102.9 mg/dL
DIO mice (C57BL/6) [6]; 72 hours post-injection
  Blood glucose (mg/dL) post-injection, Mean: 115.7 mg/dL
DIO mice (C57BL/6) [6]; 96 hours post-injection
  Blood glucose (mg/dL) post-injection, Mean: 104.6 mg/dL
